Results on 6 molecules are retold here after US10239851B2 (priority 2014, dated 2019).

Data set [1] is described as follows: LD50 of the carboxylic acid derivative in mice via the caudal vein. Particulars: mouse, in vivo, intravenous, solution in physiological saline pH 7.4. The text has this:
In addition, the inventors dissolved the compound of the present invention having the following formula in physiological saline, adjusted the pH of the solution to 7.4, and administered the solution to mice through the caudal vein.

The conditions of data set [2]: rats, 5 mg/kg intravenous, 5 min after administration.
Method: (§1) After 5 min of administration, 0.3 ml of venous blood was taken from the retrobulbar venous plexus of the rats, placed in heparinized tubes, and centrifuged at 11,000 rpm for 5 min. Plasma was separated, and the concentrations of the compounds in the plasma were determined by liquid chromatography □-mass spectrometry.
Data set [3] is described as follows: In vitro dissociation of the water soluble taxane derivatives in blood plasma of rabbit. The format is in vitro ADME, New Zealand white rabbits. Particulars: 37° C. The protocol:
The obtained water soluble taxane derivatives were formulated as 0.2 mg/ml aqueous solutions. […] After 5 min, 20 min and 60 min of incubation, 0.2 ml of solutions were respectively taken from each of the samples, and added to acetonitrile (0.4 ml) cooled to −20° C. for precipitation of protein.

A short description of data set [4]: In vitro dissociation of the water soluble taxane derivatives in blood plasma of rat. Format: in vitro ADME, SD rats. Conditions: 37° C. How it is done:
The obtained water soluble taxane derivatives were formulated as 0.2 mg/ml aqueous solutions. […] After 2 min, 5 min and 10 min of incubation, 0.2 ml of solutions were respectively taken from each of the samples, and added to acetonitrile (0.4 ml) cooled to −20° C. for precipitation of protein.

The nature of data set [5]: Solubility of the water soluble taxane derivatives in physiological saline. Format: physicochemical.
The nature of data set [6]: in vivo. Particulars: male, SD, rat, iv, 5 mg/kg.
Method: as §1
For data set [7], the system named is human prostate cancer PC-3. Conditions: 14 mg/kg.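 Note: human prostate cancer PC-3 cells implanted under the skin of nude mice to form the xenograft.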
From the text: Test of the inhibitory activity of the water soluble docetaxel derivatives on subcutaneously xenografted tumor of human prostate cancer PC-3 in nude mice: evaluating and comparing the inhibitory activity of the water soluble docetaxel derivatives and docetaxel on subcutaneously xenografted tumor of human prostate cancer PC-3 in nude mice.
Human prostate cancer PC-3 cells were subcutaneously inoculated into nude mice. After the tumor volume reached 100-150 mm^3, the animals were randomly divided into several groups, and administered with the water soluble docetaxel derivatives of the present invention and docetaxel, respectively once on the same day (D0). The tumor volume was measured 2-3 times per week, the animals were weighed and the data were recorded until day 20 (D20) after grouping.
(§2) The tumor volume (V) was calculated according to the equation: V=½×a×b^2, wherein a and b represent the length and the width, respectively.
(§3) T/C (%)=(T−T0)/(C−C0)×100, wherein T and C represent the tumor volume at the end of the experiment; and T0 and C0 represent the tumor volume at the beginning of the experiment.
Data set [8] in a line: in vivo. Particulars: male, SD, rat, iv, 5 mg/kg. The source holds these as a separate data set.
Method: After 5 min of administration, 0.3 ml of venous blood was taken from the retrobulbar venous plexus of the rats, placed in heparinized tubes, and centrifuged at 11,000 rpm for 5 min. Blood plasma was separated, and the concentrations of the compounds in the blood plasma were determined by liquid chromatography-mass spectrometry.
In data set [9] the test system is human ovarian cancer SK-OV-3.
From the text: Test of the inhibitory activity of the water soluble paclitaxel derivatives on subcutaneously xenografted tumor of human ovarian cancer SK-OV-3 in nude mice: evaluating and comparing the inhibitory activity of the water soluble paclitaxel derivatives of the present invention, paclitaxel and Abraxane® on subcutaneously xenografted tumor of human ovarian cancer SK-OV-3 in nude mice.
Human ovarian cancer SK-OV-3 cells were subcutaneously inoculated to nude mice. After the tumor volume reached 100-150 mm^3, the animals were randomly divided into groups (D0), and administered with the water soluble paclitaxel derivatives of the present invention, paclitaxel, and Abraxane®, respectively once per day for 5 days. The tumor volume was measured 2-3 times per week, the animals were weighed and the data were recorded until day 22 (D22) after grouping.
as §2, §3
[10] abbreviates: PC-3 xenograft, nude mice, D0 IV, single dose, D20.
[11] abbreviates: D22, 24 mg/kg (paclitaxel 16 mg/kg) D0-4 IV.

Consider `CN(C)CC[C@@H](F)C(=O)O.Cl`, for which, in data set [1], the LD50 (commonly the dose expected to kill half of the subjects tested) was above 1500 mg/kg.
For `CC(=O)O[C@@]12CO[C@@H]1C[C@H](O)[C@@]1(C)C(=O)[C@H](O)C3=C(C)[C@@H](OC(=O)[C@H](OC(=O)C(F)CCN(C)C)[C@@H](NC(=O)OC(C)(C)C)c4ccccc4)C[C@@](O)([C@@H](OC(=O)c4ccccc4)[C@H]21)C3(C)C.Cl` (stereo partly drawn) [Compound 06, 2′-O-[4-(N,N-dimethyl)amino-2(R,S)-fluorobutyryl]docetaxel hydrochloride], the “detection of the administered derivative in the blood plasma” value in data set [2] is on record as “cannot be detected”. Moreover, the dissociation percent in [3] (5 min) was determined as 75.6%; in data set [3] (20 min) it was 98.6%; in data set [3] (60 min) it was 100%; in data set [4] (2 min), 56.4%; in data set [4] (5 min), 91.1%; in data set [4] (10 min), 100%.
With `CC(=O)O[C@@]12CO[C@@H]1C[C@H](O)[C@@]1(C)C(=O)[C@H](O)C3=C(C)[C@@H](OC(=O)[C@H](OC(=O)C(F)(F)CCCCCN4CC4)[C@@H](NC(=O)OC(C)(C)C)c4ccccc4)C[C@@](O)([C@@H](OC(=O)c4ccccc4)[C@H]21)C3(C)C.CS(=O)(=O)O` [Compound 14, 2′-O-[7-N-(aziridin-1-yl)-2,2-difluoroheptanoyl]docetaxel methanesulfonate], the Solubility – broadly, the dissolved amount per volume that the medium holds – in data set [5] worked out at 14.3 mg/mL. The dissociation percent is 42.1% in [4] (2 min), 55.7% in data set [4] (5 min) and 72.5% in data set [4] (10 min).
For `CC(=O)O[C@H]1C(=O)[C@@]2(C)[C@H]([C@H](OC(=O)c3ccccc3)[C@]3(O)C[C@H](OC(=O)[C@H](OC(=O)C(F)(CCCCCCN(C)C4CCCC4)C(F)(F)F)[C@@H](NC(=O)c4ccccc4)c4ccccc4)C(C)=C1C3(C)C)[C@]1(OC(C)=O)CO[C@@H]1C[C@@H]2O.CS(=O)(=O)O` (stereo partly drawn) [Compound 15, 2′-O-[8-(N-methyl-N-cyclopentyl)amino-2(R,S)-2-trifluoromethyl-2-fluorooctanoyl]paclitaxel methanesulfonate] the same measures were 15.0 mg/mL, 35.0%, 46.2% and 57.9%.
On to `CC(=O)O[C@@]12CO[C@@H]1C[C@H](O)[C@@]1(C)C(=O)[C@H](O)C3=C(C)[C@@H](OC(=O)[C@H](O)[C@@H](NC(=O)OC(C)(C)C)c4ccccc4)C[C@@](O)([C@@H](OC(=O)c4ccccc4)[C@H]21)C3(C)C` [docetaxel, reference compound], for which, in the data set “in vivo [6]”, the concentration at 5 min amounted to 769 ng/mL. The “Tumor volume (mm^3) (D0)” value in data set [7] (PC-3 xenograft, nude mice, D0 IV, single dose, D0 (baseline at grouping)) is reported as 111.5 ± 1.3 mm^3. Also, in [7] (setting [10]), the “T/C (%) D20” value is reported as −27% and the “Tumor volume (mm^3) (D20)” value is 81.4 ± 25.1 mm^3. In data set [7] (PC-3 xenograft, nude mice, D0 IV, single dose, D20, P(D20)=0.000 vs control), the “Tumor inhibitory percent (%) D20” value was 127%. Also, in [7] (mouse, in vivo, iv), the “Weight change (%) D6” value is on record as −12.3%.
`CC(=O)O[C@H]1C(=O)[C@@]2(C)[C@H]([C@H](OC(=O)c3ccccc3)[C@]3(O)C[C@H](OC(=O)[C@H](O)[C@@H](NC(=O)c4ccccc4)c4ccccc4)C(C)=C1C3(C)C)[C@]1(OC(C)=O)CO[C@@H]1C[C@@H]2O` [paclitaxel, reference compound] had a concentration at 5 min in the data set “in vivo [8]” of 1790 ng/mL. Moreover, the “Tumor volume (D0)” value in [9] (D0, at grouping, 24 mg/kg (paclitaxel 16 mg/kg) D0-4 IV) was 134.6 ± 19.7 mm^3. In data set [9] (setting [11]), the “T/C (%) D22” value is reported as −60% and the “Tumor volume (D22)” value amounted to 53.7 ± 11.2 mm^3. Moreover, in data set [9] (D22, 24 mg/kg (paclitaxel 16 mg/kg) D0-4 IV, P=0.000 compared to the control), the “Tumor inhibitory percent (%) D22” value amounted to 160%. In addition, in data set [9] (mouse, in vivo), the “Weight change (%) D4” value is recorded as −4.8%.
